Source: US20120301895A1, “METHODS OF MODULATING BINDING OF SON OF SEVENLESS TO PHOSPHATIDIC ACID AND IDENTIFYING COMPOUNDS THAT MODULATE SUCH BINDING” (THE RESEARCH FOUNDATION OF STATE UNIVERSITY OF NEW YORK, priority 2007, published 2012)

Test system: PLD activity in MDA-MB-231 cells
Assay: In vivo PLD activity (transphosphatidylation, PBt) in MDA-MB-231 cells
Format: cell-based, human
Conditions: honokiol 20 μM, 4 hr
Description: In FIG. 13A, MDA-MB-231 cells were plated as in FIGS. 12A-C and then shifted to either 10% serum or 0.5% serum overnight as indicated. Honokiol (20 μM) or control ethanol was then added for 4 hr as indicated, at which time the cells were harvested and the levels of PBt were determined as in FIGS. 12A-C. The experiment shown is representative of at least three independent experiments. In FIG. 13B, the effect of honokiol on the activity of PLD isoforms was measured using exogenous substrate assay as described previously (Henage et al., “Kinetic Analysis of a Mammalian Phospholipase D: Allosteric Modulation by Monomeric GTPases, Protein Kinase C, and Polyphosphoinositides,” J. Biol. Chem. 281:3408-17 (2006), which is hereby incorporated by reference in its entirety). […] The amount of background was determined and subtracted using a bovine serum albumin standard. […]
For in vivo PLD activity, cells were plated in 60 mm culture dishes in DMEM with 10% serum at a density that would allow them to grow to about 80% confluence after 2 days, then cells were shifted to DMEM containing 0.5% or 10% serum as indicated in the figure legends overnight. […] Briefly, PLD activity was measured by the release of [methyl-^3H] choline from [choline-methyl-^3H]dipalmitoyl-phosphatidylcholine. […]

C=CCc1ccc(O)c(-c2ccc(O)c(CC=C)c2)c1 [honokiol, Honokiol]
PLD activity in cells in 0.5% serum (stress-induced) (0.5% serum): completely suppressed | basal PLD activity in cells maintained in 10% serum (10% serum): little effect
